One experiment relates to NB cells. Also noted: method as in PMID 28326012. To be noted: cited from earlier work; for proliferation, migration, invasion, and sphere formation of NB cells: AR antagonists, hormone-free medium.
The next experiment has as its system Caki2 cells. Also noted: method as in Supplement [32]; key: Positive: Abiraterone acetate alone inhibited the progression of cancer; Negative: Abiraterone acetate could not inhibit the progression of cancer. To be noted: Renal Cell Carcinoma, 195.8 mg/kg/day, i.p.; ref Supplement [32]; cited from earlier work.
For the next experiment, the system named is N2a cells. The experiment can be described thus: MTT cell viability assay, N2a. To be noted: for IC50: Mus musculus, N2a, NB cell line, MTT, 72 h. It counts as cell-based, mouse. The method, then:
(§1) N2a, SH-SY5Y, SK-N-BE (2), 10A, HUVEC, HL7702 cells were plated in 96-well plates at 8,000 cells/well, respectively, in complete media in triplicate wells for each dose and cultured for 18 h. The neuroblastoma cell lines, N2a, SH-SY5Y, and SK-N-BE (2), and non-cancer cell lines, 10A, HUVEC, and HL7702, were treated with simvastatin and fluvastatin in a range of doses from 0 to 20 μM and with AA from 0 to 30 μM; N2a, SH-SY5Y SK-N-BE (2), were treated with rosuvastatin in a range of doses from 0 to 100 μM for 72 h. Statins dissolved in DMSO and AA dissolved in ethanol. After 72 h treatment, the medium was added 0.5 mg/ml MTT reagent and incubated at 37°C for 4 h. Subsequently, the supernatant was aspirated, and cells were lysed in 150 µl DMSO, then shaken 10 min at 37°C. The optical density (OD) was measured at 570 and 630 nm using a plate reader.
A general note: Formazan colour is commonly taken as a measure of viable cells.

In the next experiment the test system is PC-3 cells. Set-up: key to Results (abiraterone acetate alone): Positive: Abiraterone acetate alone inhibited the progression of cancer; Negative: Abiraterone acetate could not inhibit the progression of cancer. The conditions noted are these: Prostate Cancer, 98.0 mg/kg/day, oral; ref Supplement [28]; cited from earlier work.
The next experiment deals with 22RV1 cells. Also noted: key to Results (abiraterone acetate alone): Positive: Abiraterone acetate alone inhibited the progression of cancer; Negative: Abiraterone acetate could not inhibit the progression of cancer. The conditions noted are these: Prostate Cancer, 200.0 mg/kg, oral; ref Supplement [29]; cited from earlier work.
The next experiment relates to MDA-MB-453 cells. Set-up: method as in Supplement [31]; key: Positive: Abiraterone acetate alone inhibited the progression of cancer; Negative: Abiraterone acetate could not inhibit the progression of cancer. To be noted: Breast Cancer, 285.7 mg/kg/day, oral; ref Supplement [31]; cited from earlier work.
For a further experiment, the system named is HUVEC cells. The experiment is described as follows: MTT cell viability assay, HUVEC. Format: cell-based. To be noted: Homo sapiens, normal cell line, 72 h. How it is done: (§2) Statins dissolved in DMSO and AA dissolved in ethanol. After 72 h treatment, the medium was added 0.5 mg/ml MTT reagent and incubated at 37°C for 4 h. Subsequently, the supernatant was aspirated, and cells were lysed in 150 µl DMSO, then shaken 10 min at 37°C. The optical density (OD) was measured at 570 and 630 nm using a plate reader.

The subject of a further experiment is HL7702 cells. The experiment can be described thus: MTT cell viability assay, HL7702. It counts as cell-based. The conditions noted are these: Homo sapiens, L02, normal cell line, 72 h. The method, then: as §2
The subject of a further experiment is SH-SY5Y cells. The experiment can be described thus: MTT cell viability assay, SH-SY5Y. Format: cell-based. The conditions noted are these: Homo sapiens, NB cell line, 72 h. How it is done: as §1
Another experiment concerns 10A cells. The experiment can be described thus: MTT cell viability assay, 10A. It counts as cell-based. The conditions noted are these: Homo sapiens, normal cell line, 72 h. How it is done: as §2
In a further experiment the test system is LNCaP cells. Also noted: method as in Supplement [30]; key: Positive: Abiraterone acetate alone inhibited the progression of cancer; Negative: Abiraterone acetate could not inhibit the progression of cancer. To be noted: Prostate Cancer, 3.5 mg/kg/day, i.p.; ref Supplement [30]; cited from earlier work.
The subject of the next experiment is SK-N-BE (2) cells. The experiment is described as follows: MTT cell viability assay, SK-N-BE (2). The conditions noted are these: Homo sapiens, SKNBE2, NB cell line, 72 h. It counts as cell-based. The method, then:
as §1

For another experiment, the system named is SH-SY5Y xenografts. The experiment can be described thus: SH-SY5Y tumor xenograft study. Format: in vivo, BALB/c nude mice. To be noted: AA 150 mg/kg, oral daily. The text has this: Four weeks old BALB/c nude mice of both sexes were purchased from Vital River Laboratory Animal Technology Co., Ltd. (Beijing, China) and maintained under specific pathogen-free conditions. Male mice were castrated 5 days before cell inoculation. […] Then, all the mice were divided randomly into four groups: control group (Placebo, n = 7), simvastatin group (Sim, n = 6), abiraterone acetate group (AA, n = 6), and combination group (Com, n = 6) including three male mice in each group. […] AA 150 mg/kg/day; combined simvastatin 10 mg/kg/day with AA 75 mg/kg/day. Tumor was harvested after 10 days of dosing, then fixed half of a tumor in 4% buffered formaldehyde for IHC and the other half was stored −80°C for RT-PCR and Western Blots analysis.

Molecules are shown by their SMILES.

With `C[C@]1(O)CC[C@H]2[C@@H]3CCC4=CC(=O)CCC4=C3C=C[C@@]21C` [R1881], the “growth of NB” value with NB cells (AR agonist, in vitro and in vivo) was “promoted the growth of NB in vitro and in vivo”.

`CC(=O)O[C@H]1CC[C@@]2(C)C(=CC[C@@H]3[C@@H]2CC[C@]2(C)C(c4cccnc4)=CC[C@@H]32)C1` [Abiraterone acetate]: the “Results (abiraterone acetate alone)” value with Caki2 cells was “Positive”; in the experiment on PC-3 cells, “Positive”; in the experiment with 22RV1 cells, “Negative”; in the experiment on MDA-MB-453 cells, “Negative”; in the experiment with LNCaP cells, “Positive”. Further, the IC50 – broadly, the concentration needed to halve the response being measured – in the experiment with N2a cells was 4.32 µM; in the experiment on HUVEC cells it was 22.6 µM; in the experiment on HL7702 cells, 5.31 µM; in the experiment with SH-SY5Y cells it was 2.72 µM; in the experiment on 10A cells it was 5.2 µM; in the experiment with SK-N-BE (2) cells, 9.86 µM. Further, the inhibition rate in the experiment with N2a cells (N2a cells, 2.5 μM AA) is around 20%. The tumor growth entry in the experiment on SH-SY5Y xenografts was “tumor growth delay”.

For the compound `CC(C)n1c(/C=C/C(O)CC(O)CC(=O)O)c(-c2ccc(F)cc2)c2ccccc21` (stereo not shown) [Fluvastatin], the IC50 with N2a cells amounted to 5.09 µM; in the experiment with HUVEC cells, 8.96 µM; in the experiment with HL7702 cells it was 29.7 µM; in the experiment on SH-SY5Y cells it was 6 µM; in the experiment with 10A cells it was 13.3 µM; in the experiment on SK-N-BE (2) cells, 8.41 µM.

On to `CNC(=O)c1ccc(N2C(=S)N(c3ccc(C#N)c(C(F)(F)F)c3)C(=O)C2(C)C)cc1F` [MDV3100], for which the “proliferation, migration, invasion, and sphere formation of NB cells” value with NB cells was “significantly decreased”.

With `CNC(=O)c1ccc(N2C(=S)N(c3cnc(C#N)c(C(F)(F)F)c3)C(=O)C23CCC3)cc1F` [ARN509], the “proliferation, migration, invasion, and sphere formation of NB cells” value in the experiment on NB cells is “significantly decreased”.

As to `CC(C)c1nc(N(C)S(C)(=O)=O)nc(-c2ccc(F)cc2)c1/C=C/[C@@H](O)C[C@@H](O)CC(=O)O` [Rosuvastatin], the figures for the IC50 in the experiment on N2a cells, with SH-SY5Y cells and with SK-N-BE (2) cells were 68.4 µM, above 100 µM and 67.6 µM, respectively.

The values above are taken from article PMC8141582, “Synergistic Effect of Statins and Abiraterone Acetate on the Growth Inhibition of Neuroblastoma via Targeting Androgen Receptor” (Frontiers in Oncology, 2021).
